In the supplement of paper PMC10307832:

How the values were obtained:
Experiment in all cases: relative viability (nuclei count vs DMSO), 5 days (fraction); higher = more cells survive
[1] = compound: COC1=C(C=C(C=C1)C2=CC3=NC=CN3C(=N2)NC4=C(C=CC=N4)C(=O)N)OC [BAY61-3606] + CC(=O)Nc1cccc(-n2c(=O)n(C3CC3)c(=O)c3c(Nc4ccc(I)cc4F)n(C)c(=O)c(C)c32)c1 [Trametinib] (partner 0.02 µM)
Procedure, shortened: (§1)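 Dosing by pin tool came one day after lung cancer cell lines were seeded in 1536-well plates, using either one drug or a fixed anchor-drug dose plus five library-drug doses (not always all listed) in √10 steps. After 5 days, nuclei were counted on 4× images. Relative viability is treated-well nuclei count divided by vehicle-well nuclei count, and values are medians of duplicate plates.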

[2] = compound: COC1=C(C=C(C=C1)C2=CC3=NC=CN3C(=N2)NC4=C(C=CC=N4)C(=O)N)OC [BAY61-3606] + Cc1nc(NC(=O)N2CCC[C@H]2C(N)=O)sc1-c1ccnc(C(C)(C)C(F)(F)F)c1 [Alpelisib] (partner 2 µM)
Procedure, shortened: as §1

[3] = compound: COC1=C(C=C(C=C1)C2=CC3=NC=CN3C(=N2)NC4=C(C=CC=N4)C(=O)N)OC [BAY61-3606] + N=C(N)NC(=N)NCCc1ccccc1 [Phenformin] (partner 250 µM)
Procedure, shortened: as §1

[4] = compound: COc1cccc2c1C(=O)c1c(O)c3c(c(O)c1C2=O)C[C@@](O)(C(=O)CO)C[C@@H]3O[C@H]1C[C@H](N)[C@H](O)[C@H](C)O1 [Doxorubicin] + O=C(CCCCCCC(=O)Nc1ccccc1)NO [Vorinostat] (partner 1 µM)
Procedure, shortened: as §1

| Cell Line | relative viability ([1]; first compound 0.02 µM) | relative viability ([1]; first compound 0.06325 µM) | relative viability ([1]; first compound 0.2 µM) | relative viability ([1]; first compound 0.6325 µM) | relative viability ([1]; first compound 2 µM) | relative viability ([2]; first compound 0.02 µM) | relative viability ([2]; first compound 0.06325 µM) | relative viability ([2]; first compound 0.2 µM) | relative viability ([2]; first compound 0.6325 µM) | relative viability ([2]; first compound 2 µM) | relative viability ([3]; first compound 0.02 µM) | relative viability ([3]; first compound 0.06325 µM) | relative viability ([3]; first compound 0.2 µM) | relative viability ([3]; first compound 0.6325 µM) | relative viability ([3]; first compound 2 µM) | relative viability ([4]; first compound 0.001 µM) | relative viability ([4]; first compound 0.003162 µM) | relative viability ([4]; first compound 0.01 µM) | relative viability ([4]; first compound 0.03162 µM) | relative viability ([4]; first compound 0.1 µM) |
| --- | --- | --- | --- | --- | --- | --- | --- | --- | --- | --- | --- | --- | --- | --- | --- | --- | --- | --- | --- | --- |
| 201T | 0.728 | 0.712 | 0.771 | 0.753 | 0.735 | 1.07 | 1.03 | 1.05 | 1.1 | 1.09 | 0.461 | 0.425 | 0.449 | 0.511 | 0.444 | 0.892 | 0.996 | 0.96 | 1.06 | 0.942 |
| A549 |  |  |  |  |  | 0.81 | 0.658 | 0.846 | 0.718 | 0.573 | 0.17 | 0.0908 | 0.0972 | 0.212 | 0.166 |  |  |  |  |  |
| A-427 | 0.902 | 0.755 | 0.782 | 0.798 | 0.817 | 1.11 | 1.13 | 1.1 | 1.07 | 1.06 | 0.417 | 0.235 | 0.287 | 0.315 | 0.257 | 0.913 | 0.884 | 0.847 | 0.647 | 0.351 |
| ABC-1 |  |  |  |  |  | 1.06 | 1.14 | 1.15 | 0.968 | 1.06 | 0.254 | 0.269 | 0.219 | 0.227 | 0.284 | 1.25 | 0.999 | 0.908 | 0.509 | 0.309 |
| BEN | 1.21 | 1.01 | 1.11 | 1.21 | 1.2 | 1.23 | 0.831 | 1.24 | 1.24 | 0.958 | 0.272 | 0.257 | 0.294 | 0.284 | 0.255 | 0.617 | 0.612 | 0.467 | 0.58 | 0.502 |
| CAL-12T | 0.359 | 0.372 | 0.346 | 0.347 | 0.229 | 1.21 | 1.28 | 1.11 | 1.4 | 0.607 | 0.559 | 0.592 | 0.502 | 0.557 | 0.266 | 0.928 | 0.808 | 0.488 | 0.228 | 0.153 |
| COR-L23 | 0.725 | 0.668 | 0.635 | 0.751 | 0.558 | 0.868 | 0.764 | 0.753 | 0.78 | 0.486 | 0.474 | 0.438 | 0.495 | 0.466 | 0.352 | 0.48 | 0.395 | 0.356 | 0.252 | 0.157 |
| COR-L 105 | 0.474 | 0.414 | 0.463 | 0.429 | 0.436 | 0.942 | 0.988 | 0.76 | 1.02 | 0.788 | 0.494 | 0.506 | 0.435 | 0.413 | 0.323 | 0.707 | 0.788 | 0.773 | 0.559 | 0.434 |
| Calu-6 |  |  |  |  |  | 1.04 | 1.13 | 0.946 | 0.956 | 0.703 |  |  |  |  |  |  |  |  |  |  |
| ChaGo-K-1 | 0.947 | 0.893 | 0.921 | 0.872 | 0.939 |  |  |  |  |  | 0.513 | 0.451 | 0.515 | 0.462 | 0.52 | 0.763 | 0.76 | 0.721 | 0.698 | 0.574 |
| EBC-1 |  |  |  |  |  | 0.907 | 0.902 | 0.869 | 0.928 | 0.686 |  |  |  |  |  |  |  |  |  |  |
| EKVX | 0.497 | 0.308 | 0.303 | 0.361 | 0.365 | 0.916 | 0.886 | 0.89 | 0.981 | 0.744 | 0.239 | 0.228 | 0.221 | 0.222 | 0.234 | 0.764 | 0.889 | 0.762 | 0.724 | 0.794 |
| EMC-BAC-2 | 0.938 | 0.883 | 0.944 | 1.17 | 1.05 | 0.817 | 0.837 | 0.75 | 0.85 | 0.802 | 0.582 | 0.509 | 0.485 | 0.521 | 0.444 | 0.872 | 0.311 | 0.241 | 0.22 | 0.114 |
| EPLC-272H | 0.309 | 0.275 | 0.281 | 0.294 | 0.263 | 1.03 | 0.935 | 1 | 0.986 | 0.905 | 0.254 | 0.294 | 0.312 | 0.303 | 0.228 | 0.364 | 0.501 | 0.381 | 0.345 | 0.345 |
| H3255 | 0.688 | 0.538 | 0.598 | 0.715 | 0.587 | 0.708 | 0.635 | 0.673 | 0.874 | 0.735 | 0.351 | 0.342 | 0.371 | 0.399 | 0.342 |  | 0.913 | 0.698 | 0.88 | 0.428 |
| HARA | 0.6 | 0.52 | 0.781 | 0.724 | 0.54 | 0.867 | 0.88 | 0.877 | 0.83 | 0.561 | 0.433 | 0.35 | 0.432 | 0.494 | 0.369 | 0.593 | 0.482 | 0.547 | 0.589 | 0.432 |
